Data: patent US7183295B2, “PPAR-activating compound and pharmaceutical composition comprising the compound” (Kowa Co., Ltd., priority 2003, dated 2007)

Experiments:
Type in all cases: cell-based
[1] = target: T1, human PPARα (166–467aa) ligand binding domain (Homo sapiens, UniProt Q07869); assay: PPAR transfection (Gal4-LBD luciferase reporter) assay, hPPARα; conditions: for EC50: 16 hours, luciferase activity, read-out: hPPAR, EC50 α (agonist activity)
T1 construct: human PPARα (166–467aa); expressed in transfected cells; host or cells: COS-7
T1 sequence (Q07869 166-467): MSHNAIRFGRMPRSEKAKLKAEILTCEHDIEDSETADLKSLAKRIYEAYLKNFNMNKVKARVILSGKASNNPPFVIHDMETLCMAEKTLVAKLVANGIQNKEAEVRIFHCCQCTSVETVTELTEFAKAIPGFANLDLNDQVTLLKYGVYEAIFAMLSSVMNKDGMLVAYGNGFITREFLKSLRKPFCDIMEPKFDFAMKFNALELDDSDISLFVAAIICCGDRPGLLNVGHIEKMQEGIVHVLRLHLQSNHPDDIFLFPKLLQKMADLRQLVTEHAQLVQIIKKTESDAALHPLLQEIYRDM
Procedure: (§1) COS-7 cells, which is African green monkey kidney cell line, were used for all transfection assays. Cells were cultured in DMEM medium supplemented with 10% fetal bovine serum, glutamic acid, and an antibiotic under humidified 5% CO2 atmosphere.
(§2) Cells were transfected by lipofectamine reagent with a mixture containing expression plasmid, firefly luciferase reporter plasmid. And a β-galactosidase expression plasmid used as an internal control for transfection efficiency.
(§3) Transiently transfected cells were incubated with DMEM with 0.2% FCS with or without compound. And after 16 hours, luciferase activity and β-galactosidase activity of cell lysate were measured.
(§4) Each compound was dissolved in and diluted with dimethyl sulfoxide (DMSO), and the DMSO concentration of the DMEM medium (containing 0.2% serum) was adjusted to 0.1% upon treatment of cells.

[2] = target: T2, human PPARγ (182–505aa) ligand binding domain (Homo sapiens, UniProt P37231); assay: PPAR transfection (Gal4-LBD luciferase reporter) assay, hPPARγ; conditions: for activation factor, hPPARγ (FIGS. 1 to 5): at 10-fold concentration of EC50 value in activation of hPPARα, ratio to DMSO control; for EC50: 16 hours, luciferase activity, read-out: hPPAR, EC50 γ (agonist activity)
T2 construct: γ(182–505aa); expressed in transfected cells; host or cells: COS-7
T2 sequence (P37231 182-505): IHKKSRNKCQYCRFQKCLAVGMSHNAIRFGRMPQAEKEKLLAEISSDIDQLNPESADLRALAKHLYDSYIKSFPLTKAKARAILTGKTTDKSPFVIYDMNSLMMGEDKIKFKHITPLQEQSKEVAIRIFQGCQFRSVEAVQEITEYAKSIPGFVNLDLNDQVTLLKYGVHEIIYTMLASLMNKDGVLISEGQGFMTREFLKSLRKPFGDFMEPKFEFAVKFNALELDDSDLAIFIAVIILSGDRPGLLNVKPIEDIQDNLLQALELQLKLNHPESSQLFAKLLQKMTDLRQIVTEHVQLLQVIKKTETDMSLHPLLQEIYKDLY
Procedure: as §1, §2, §3, §4

[3] = target: T3, human PPARδ (137–441aa) ligand binding domain (Homo sapiens, UniProt Q03181); assay: PPAR transfection (Gal4-LBD luciferase reporter) assay, hPPARδ; conditions: for activation factor, hPPARδ (FIGS. 1 to 5): at 10-fold concentration of EC50 value in activation of hPPARα, ratio to DMSO control; for EC50: 16 hours, luciferase activity, read-out: hPPAR, EC50 δ (agonist activity)
T3 construct: δ (137–441aa); expressed in transfected cells; host or cells: COS-7
T3 sequence (Q03181 137-441): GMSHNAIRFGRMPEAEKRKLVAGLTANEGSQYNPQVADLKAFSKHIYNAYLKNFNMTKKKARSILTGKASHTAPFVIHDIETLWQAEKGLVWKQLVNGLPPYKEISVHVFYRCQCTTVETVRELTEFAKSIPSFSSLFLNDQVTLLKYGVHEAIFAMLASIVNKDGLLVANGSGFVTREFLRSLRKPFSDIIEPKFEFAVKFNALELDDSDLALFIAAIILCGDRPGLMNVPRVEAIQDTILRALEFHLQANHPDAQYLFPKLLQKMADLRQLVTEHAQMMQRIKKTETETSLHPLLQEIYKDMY
Procedure: as §1, §2, §3, §4

| SMILES | EC50 ([1]; transfected COS-7 cells) [nM] | activation factor, hPPARγ (FIGS. 1 to 5) [2] | EC50 ([2]; transfected COS-7 cells) [nM] | activation factor, hPPARδ (FIGS. 1 to 5) [3] | EC50 ([3]; transfected COS-7 cells) [nM] | activation factor, hPPARα (FIGS. 1 to 5) ([1]; at EC50 value in activation of hPPARα and at 10 times that concentration, ratio to DMSO control) | activation of hPPARα isoform ([1]; transfected COS-7 cells) | activation of hPPARγ isoform ([2]; transfected COS-7 cells) | activation of hPPARδ isoform ([3]; transfected COS-7 cells) |
| --- | --- | --- | --- | --- | --- | --- | --- | --- | --- |
| CC(C)(Oc1ccc(CCCN(CCc2ccccc2)c2nc3ccccc3s2)cc1)C(=O)O [Compound A] | 100 | strongly activate | 200 | strongly activate | 400 | – | – | – | – |
| CC(C)(Oc1ccc(CCCN(CCc2ccccc2)C(=O)c2nc3ccccc3s2)cc1)C(=O)O [Compound B, reference compound] | 120 | strongly activate | 700 | strongly activate | 900 | – | – | – | – |
| CC(C)(Oc1ccc(CCCN(CCc2ccccc2)c2nc3ccccc3[nH]2)cc1)C(=O)O [Compound C, reference compound] | – | activated no hPPAR isoform | – | activated no hPPAR isoform | – | activated no hPPAR isoform | no activation | no activation | no activation |
| CC(Oc1cccc(CN(CCCOc2ccccc2)c2nc3ccccc3o2)c1)C(=O)O (stereo not drawn) [Example 9, 2-[3-[[N-(Benzoxazol-2-yl)-N-3-phenoxypropyl]aminomethyl]phenoxy]propionic acid] | 10 | – | 1200 | – | 2400 | – | – | – | – |
| O=C(O)COc1cccc(CN(CCCOc2ccccc2)c2nc3ccccc3o2)c1 [Example 12, 3-[[N-(Benzoxazol-2-yl)-N-3-phenoxypropyl]aminomethyl]phenoxyacetic acid] | 1200 | – | > 100000 | – | > 100000 | – | – | – | – |
| CCC(Oc1cccc(CN(CCCOc2ccccc2)c2nc3ccccc3o2)c1)C(=O)O (stereo not drawn) [Example 13, 2-[3-[[N-(Benzoxazol-2-yl)-N-3-phenoxypropyl]aminomethyl]phenoxy]butyric acid] | 10 | – | > 50000 | – | 2000 | – | – | – | – |
| CC(Oc1cccc(CN(CCCOc2cccc(N(C)C)c2)c2nc3ccccc3o2)c1)C(=O)O (stereo not drawn) [Example 19, 2-[3-[[N-(Benzoxazol-2-yl)-N-3-(3-dimethylaminophenoxy)propyl]aminomethyl]phenoxy]propionic acid] | 0.1 | – | 1200 | – | > 100000 | – | – | – | – |
| CCC(Oc1cccc(CN(CCOc2ccccc2)c2nc3ccccc3o2)c1)C(=O)O (stereo not drawn) [Example 24, 2-[3-[[N-(Benzoxazol-2-yl)-N-2-phenoxyethyl]aminomethyl]phenoxy]butyric acid] | 30 | – | 1400 | – | 2300 | – | – | – | – |
| CC(Oc1cccc(CCN(CCOc2ccccc2)c2nc3ccccc3o2)c1)C(=O)O (stereo not drawn) [Example 31, 2-[3-[2-[N-(Benzoxazol-2-yl)-N-2-phenoxyethyl]aminoethyl]phenoxy]propionic acid] | 90 | – | > 100000 | – | > 50000 | – | – | – | – |
| CC(Oc1cccc(CCN(CCOc2ccc(F)cc2)c2nc3ccccc3o2)c1)C(=O)O (stereo not drawn) [Example 34, 2-[3-[2-[N-(Benzoxazol-2-yl)-N-2-(4-fluorophenoxy)ethyl]aminoethyl]phenoxy]propionic acid] | 60 | – | 1200 | – | 1600 | – | – | – | – |
| CC(Oc1cccc(CCN(CCOc2ccc(F)cc2)c2nc3cc(F)ccc3o2)c1)C(=O)O (stereo not drawn) [Example 35, 2-[3-[2-[N-(5-Fluorobenzoxazol-2-yl)-N-2-(4-fluorophenoxy)ethyl]aminoethyl]phenoxy]propionic acid] | 20 | – | 1200 | – | 1600 | – | – | – | – |
| CC(Oc1cccc(CCN(CCOc2ccc(F)cc2)c2nc3cc(Cl)ccc3o2)c1)C(=O)O (stereo not drawn) [Example 36, 2-[3-[2-[N-(5-Chlorobenzoxazol-2-yl)-N-2-(4-fluorophenoxy)ethyl]aminoethyl]phenoxy]propionic acid] | 50 | – | 2100 | – | 1600 | – | – | – | – |
| COc1ccc2oc(N(CCOc3ccc(F)cc3)CCc3cccc(OC(C)C(=O)O)c3)nc2c1 (stereo not drawn) [Example 37, 2-[3-[2-[N-2-(4-Fluorphenoxy)ethyl-N-(5-methoxybenzoxazol-2-yl)]aminoethyl]phenoxy]propionic acid] | 70 | – | 4200 | – | 1500 | – | – | – | – |
| CCC(Oc1cccc(CCN(CCCOc2ccccc2)c2nc3ccccc3o2)c1)C(=O)O (stereo not drawn) [Example 38, 2-[3-[2-[N-(Benzoxazol-2-yl)-N-3-phenoxypropyl]aminoethyl]phenoxy]butyric acid] | 50 | – | 1500 | – | 1400 | – | – | – | – |

The next lines start with the values.

| EC50 ([1]; transfected COS-7 cells) [nM] | activation factor, hPPARγ (FIGS. 1 to 5) [2] | EC50 ([2]; transfected COS-7 cells) [nM] | activation factor, hPPARδ (FIGS. 1 to 5) [3] | EC50 ([3]; transfected COS-7 cells) [nM] | activation factor, hPPARα (FIGS. 1 to 5) ([1]; at EC50 value in activation of hPPARα and at 10 times that concentration, ratio to DMSO control) | activation of hPPARα isoform ([1]; transfected COS-7 cells) | activation of hPPARγ isoform ([2]; transfected COS-7 cells) | activation of hPPARδ isoform ([3]; transfected COS-7 cells) | SMILES |
| --- | --- | --- | --- | --- | --- | --- | --- | --- | --- |
| 10 | substantially no activation | > 100000 | substantially no activation | 1600 | – | – | – | – | CCC(Oc1cccc(CN(CCCOc2ccc(F)cc2)c2nc3ccccc3o2)c1)C(=O)O (stereo not drawn) [Example 1, 2-[3-[[N-(Benzoxazol-2-yl)-N-3-(4-fluorophenoxy)propyl]aminomethyl]phenoxy]butyric acid] |
| 10 | substantially no activation | 7300 | substantially no activation | 2500 | – | – | – | – | CCC(Oc1cccc(CN(CCOc2ccc(Cl)cc2)c2nc3ccccc3o2)c1)C(=O)O (stereo not drawn) [Example 2, 2-[3-[[N-(Benzoxazol-2-yl)-N-2-(4-chlorophenoxy)ethyl]aminomethyl]phenoxy]butyric acid] |
| 10 | – | > 100000 | – | 1800 | – | – | – | – | CCC(Oc1cccc(CN(CCOc2ccc(F)cc2)c2nc3ccccc3o2)c1)C(=O)O (stereo not drawn) [Example 3, 2-[3-[[N-(Benzoxazol-2-yl)-N-2-(4-fluorophenoxy)ethyl]aminomethyl]phenoxy]butyric acid] |
| 70 | – | 3500 | – | > 100000 | – | – | – | – | CC(C)(Oc1cccc(CN(CCOc2ccc(Cl)cc2)c2nc3ccccc3o2)c1)C(=O)O [Example 6, 2-[3-[[N-(Benzoxazol-2-yl)-N-2-(4-chlorophenoxy)ethyl]aminomethyl]phenoxy]-2-methylpropionic acid] |
| – | – | > 100000 | – | 1700 | – | – | – | – | CCC(Oc1cccc(CN(CCCOc2ccc(OC)cc2)c2nc3ccccc3o2)c1)C(=O)O (stereo not drawn) [Example 14, 2-[3-[[N-(Benzoxazol-2-yl)-N-3-(4-methoxyphenoxy)propyl]aminomethyl]phenoxy]butyric acid] |
| 50 | – | > 100000 | – | 1500 | – | – | – | – | COc1ccc(OCCCN(Cc2cccc(OC(C)(C)C(=O)O)c2)c2nc3ccccc3o2)cc1 [Example 15, 2-[3-[[N-(Benzoxazol-2-yl)-N-3-(4-methoxyphenoxy)propyl]aminomethyl]phenoxy]-2-methylpropionic acid] |
| 70 | – | 1200 | – | > 100000 | – | – | – | – | CC(Oc1cccc(CN(CCOc2ccccc2)c2nc3ccccc3o2)c1)C(=O)O (stereo not drawn) [Example 18, 2-[3-[[N-(Benzoxazol-2-yl)-N-2-phenoxyethyl]aminomethyl]phenoxy]propionic acid] |
| 10 | – | 1200 | – | 2000 | – | – | – | – | COc1ccc(OCCCN(Cc2cccc(OC(C)C(=O)O)c2)c2nc3ccccc3o2)cc1 (stereo not drawn) [Example 20, 2-[3-[[N-(Benzoxazol-2-yl)-N-3-(4-methoxyphenoxy)propyl]aminomethyl]phenoxy]propionic acid] |
| – | – | 1100 | – | 1600 | – | – | – | – | CC[C@@H](Oc1cccc(CN(CCCOc2ccc(OC)cc2)c2nc3ccccc3o2)c1)C(=O)O [Example 85, (R)-2-[[3-[N-(Benzoxazol-2-yl)-N-3-(4-methoxyphenoxy)propyl]aminomethyl]phenoxy]butyric acid] |
